Each structure is given as a SMILES string.

This data set in a line: Human HepG2 cell viability assay in 384 well format. It is filed as toxicity, cell-based. On the set-up: dose 125 nL, time 70.5 hour; concentration not given beside the values. The following applies: HepG2 cells, read-out: Inhibition.
On to `COc1ccc(Cl)cc1-c1nc(N)nc(N(C)C)n1`, for which the cytotoxicity at 70.5 h is -6.28%.

Consider `COc1cc2c(cc1CN1CCC3(CCCN(C)C3=O)C1)OCCO2` (centres undefined), for which the cytotoxicity at 70.5 h was -15.9%.

For the compound `Cc1noc(C2CCCN(C(=O)CCNc3ncccn3)C2)n1` (centres undefined), the cytotoxicity at 70.5 h was -13.2%.

Regarding `CCn1cc(Br)c(C(=O)NCc2cnn(C)c2)n1`, the cytotoxicity at 70.5 h was -13.6%.

In the case of `COc1ccc(CN(C)[C@@H]2CN(C(=O)c3cncs3)C[C@H]2O)cc1`, the cytotoxicity at 70.5 h was 0.0164%.

Turning to `Cc1ccccc1-n1cc(-c2ccnc(N[C@@H](CO)C(C)C)n2)cn1`, the cytotoxicity at 70.5 h is -7.32%.

Consider `N#CC1(NC(=O)CN2CCc3c(ncn3C3CC3)C2)CCCC1`, for which the cytotoxicity at 70.5 h is -2.71%.

Turning to `CCC(C)(NCC(=O)NC(C)C)c1nccs1` (centres undefined), the cytotoxicity at 70.5 h is -3.03%.

Consider `Cc1ccc(CNC(=O)CN2C=Nc3ccccc3S2(=O)=O)s1`, for which the cytotoxicity at 70.5 h is -11.3%.

`O=C(Nc1ccccn1)C1CCN(Cc2cccc3c2OCCO3)CC1`: the cytotoxicity at 70.5 h is 27.9%.

As for `C[S+]([O-])c1nncn1CCc1ccccc1` (centres undefined), the cytotoxicity at 70.5 h came out at 17.1%.

In the case of `CCN(Cc1csc(C)n1)c1cccc(CO)c1`, the cytotoxicity at 70.5 h is -3.7%.

Consider `Cc1ncc2c(n1)CN(Cc1nc(-c3ccsc3)no1)CC2`, for which the cytotoxicity at 70.5 h is -21.5%.

As for `O=C(CCc1cc2n(n1)CCCN(C(=O)c1ccncc1)C2)NC1CC1`, the cytotoxicity at 70.5 h was -6.73%.

`CCNC(=O)[C@@H]1C[C@H](N)CN1C(=O)CCc1ccc(C)c(C)c1`: the cytotoxicity at 70.5 h is -3.41%.

Regarding `CC(C)CN1CC2(CCN(C(=O)C(O)c3ccccc3Cl)CC2)CC1=O` (centres undefined), the cytotoxicity at 70.5 h was -5.68%.

On to `CC1CCCN(Cc2cccc(C(=O)Nc3nccs3)c2)C1` (centres undefined), for which the cytotoxicity at 70.5 h was -11.3%.

Consider `CC(C)C(CCO)NC(=O)Nc1cc(F)ccc1-n1cccn1` (centres undefined), for which the cytotoxicity at 70.5 h is -3.1%.

As to `Cc1nnc(N2CCCC3(CN(c4cccc(F)c4)CCO3)C2)o1` (centres undefined), the cytotoxicity at 70.5 h turned out to be 1.49%.

As to `CNC(=O)C(C)(C)NC(=O)c1cc(OCC2CCC2)cc(C(=O)OC)c1`, the cytotoxicity at 70.5 h was -1.19%.

For the compound `CSCC[C@H]1CN2CCC[C@H]2CN1Cc1cn(C)nc1C`, the cytotoxicity at 70.5 h was -3.69%.

On to `CS(=O)(=O)NCc1cn2c(n1)CN(Cc1ccoc1)CC2`, for which the cytotoxicity at 70.5 h worked out at 3.17%.

Consider `CNCC(=O)N1CCC(c2ccnc(Nc3ccc(C)cn3)n2)C1` (centres undefined), for which the cytotoxicity at 70.5 h was -1.4%.

In the case of `O=C(Cc1ccc2c(c1)CCCC2)NCCc1ccccn1`, the cytotoxicity at 70.5 h was -5.18%.

With `CC(C)S(=O)(=O)NCC1CCCN(C(=O)c2ccc(F)cc2)C1` (centres undefined), the cytotoxicity at 70.5 h was 9.08%.

Turning to `COc1cc(CNC2CCCN(c3cccnn3)C2)cc2c1OCO2` (centres undefined), the cytotoxicity at 70.5 h is -3.66%.

Take `CS(=O)(=O)Nc1ccc([C@H]2OCC(=O)N[C@@H]2CO)cc1`: the cytotoxicity at 70.5 h worked out at 2.21%.

With `Cc1ccccc1C(O)CNC(=O)Cc1ccc(F)cc1` (centres undefined), the cytotoxicity at 70.5 h was -2.44%.

For `CC(=O)N1[C@H](Cn2cncn2)C[C@@H]2CN(Cc3cccnc3)CC[C@@H]21`, the cytotoxicity at 70.5 h was -2.89%.

In the case of `CO[C@H]1C[C@@H]2CN(C(=O)c3ccc(C)s3)C[C@@H]2C1`, the cytotoxicity at 70.5 h was -4.22%.

Consider `CC(NC(=O)Cc1cccs1)(C(N)=O)c1cccc(Cl)c1` (centres undefined), for which the cytotoxicity at 70.5 h stood at 1.57%.

For `Cc1cc(C(=O)NCc2cccnc2N2CCc3ccccc3C2)[nH]n1`, the cytotoxicity at 70.5 h was -3.47%.

As for `O=S(=O)(c1ccc(F)cc1)N1CCCC(c2nccs2)C1` (centres undefined), the cytotoxicity at 70.5 h is -2.41%.

Consider `CC(C)CNC(=O)CNc1c(NCc2ccco2)c(=O)c1=O`, for which the cytotoxicity at 70.5 h is 0.885%.

Consider `CC1(NC(=O)Cc2cccs2)CCS(=O)(=O)C1` (centres undefined), for which the cytotoxicity at 70.5 h is -85.8%.

For the compound `O[C@@]1(c2ccccn2)CC[C@H]2CN(Cc3ccccn3)C[C@H]21`, the cytotoxicity at 70.5 h is -0.173%.

With `Cc1noc([C@@H](C)NCc2ccc(F)cc2)c1C(=O)O`, the cytotoxicity at 70.5 h is -1.34%.

On to `CC1(C)OCC2(CO1)CN(C(=O)c1ccccc1Br)C2`, for which the cytotoxicity at 70.5 h is -4.2%.

Consider `Cc1nnc([C@@]23CCO[C@@H]2CCN(Cc2ccc4c(c2)OCO4)C3)o1`, for which the cytotoxicity at 70.5 h is -2.95%.

The values above are taken from ChEMBL document CHEMBL3507680, “University of Dundee, Gates Library screen for HepG2 cell viability”.
